Marks after values point to notes of the source that are not given here.
Legend:
hypertensive subjects [1] = test: Serum potassium; assay type: in vivo, human; conditions: for Increase in potassium levels relative to baseline: Week 8; for Individuals with increased serum K+, Mild 5.6-6.0 mMol/L (number) / Individuals with increased serum K+, Mild 5.6-6.0 mMol/L (percent) / Individuals with increased serum K+, Moderate 6.1-6.5 mMol/L / Individuals with increased serum K+, Severe >6.5 mMol/L: during treatment
Excerpt: Safety endpoints of this study are: • (a) Incidence and severity of all spontaneously reported adverse events (AEs) • (b) Changes in vital signs (standing SBP, standing DBP, body temperature, heart rate, and respiratory rate) • (c) Changes in electrocardiogram parameters (including cardiac intervals: PR, QRS, QT, and corrected QT interval using Fridericia's formula) • (d) Changes in clinical laboratory assessments (hematology, chemistry, coagulation, and urinalysis) • (e) Change in office-measured SBP from Study Week 8 (end-of-treatment period to end of follow up (i.e. end of Study Week 12 for Part 1 and end of Study 10 for Part 2).
The Safety Analysis Set includes all enrolled subjects who received at least one dose of study treatment (MLS-101 or placebo). In analyses performed on the Safety Analysis Set, subjects will be analyzed according to their actual treatment received.

hypertensive subjects [2] = test: Estimated glomerular filtration rate (eGFR, CKD-EPI equation); assay type: in vivo, human; conditions: Part 1
Method: In contrast, mean eGFR for the Placebo group was relatively stable throughout treatment, reaching a mean maximal reduction of −2.80 mL/min/1.73 m^2 at Week 2 (range: −0.83 mL/min/1.73 m^2 to −2.80 mL/min/1.73 m^2). Estimated glomerular filtration rate was estimated using the CKD-EPI equation.

CC(=O)N[C@H]1CC[C@H](NC(=O)CN2CCN(c3nncc(-c4ccc(C)cc4)n3)CC2)CC1 [Compound A HBr] was tested, and the “Increase in potassium levels relative to baseline” value (hypertensive subjects [1]; 25 mg BID, Part 1) was 0.341 mmol/L, the “Serum K+ Mean Change from Baseline to Wk 8” value (hypertensive subjects [1]; 50 mg QD (n = 28)) was “+0.25 mmol/L” and the “Individuals with increased serum K+, Mild 5.6-6.0 mMol/L (number)” value (hypertensive subjects [1]; 50 mg QD (n = 28)) was 1. The “Individuals with increased serum K+, Mild 5.6-6.0 mMol/L (percent)” value (hypertensive subjects [1]; 50 mg QD (n = 28)) was “(10.7%)”, the “Individuals with increased serum K+, Moderate 6.1-6.5 mMol/L” value (hypertensive subjects [1]; 50 mg QD (n = 28)) was 0 and the “Serum K+ Mean Change from Baseline to Wk 8” value (hypertensive subjects [1]; 100 mg QD (n = 61)) was “+0.29 mmol/L”. The “Individuals with increased serum K+, Mild 5.6-6.0 mMol/L (number)” value (hypertensive subjects [1]; 100 mg QD (n = 61)) was 8, the “Individuals with increased serum K+, Mild 5.6-6.0 mMol/L (percent)” value (hypertensive subjects [1]; 100 mg QD (n = 61)) was “(13.1%)” and the “Individuals with increased serum K+, Moderate 6.1-6.5 mMol/L” value (hypertensive subjects [1]; 100 mg QD (n = 61)) was 1 (1.6%). The “Individuals with increased serum K+, Severe >6.5 mMol/L” value (hypertensive subjects [1]; 100 mg QD (n = 61)) was 1 (1.6%), the “Number of individuals with verified or multiple increased serum K+ 5.2-5.5 mMol/L” value (hypertensive subjects [1]; 100 mg QD, Part 1) was 5 and the “Number of individuals with verified or multiple increased serum K+ 5.6-6.0 mMol/L” value (hypertensive subjects [1]; 100 mg QD, Part 1) was 3. For the same compound, the “Number of individuals with verified or multiple increased serum K+ 6.1-6.5 mMol/L” value (hypertensive subjects [1]; 100 mg QD, Part 1) was 0, the “Percent of individuals with verified or multiple increased serum K+ 5.2-5.5 mMol/L” value (hypertensive subjects [1]; 100 mg QD, Part 1) was “(18.5%)” and the “Percent of individuals with verified or multiple increased serum K+ 5.6-6.0 mMol/L” value (hypertensive subjects [1]; 100 mg QD, Part 1) was “(10.7%)”. For the same compound, the “Number of individuals with increased serum K+ >6.5 mMol/L” value (hypertensive subjects [1]; 100 mg QD, Part 1, isolated incident not verified by repeat measurement) was 1*, the “Number of individuals with verified or multiple increased serum K+ 5.2-5.5 mMol/L” value (hypertensive subjects [1]; 100 mg QD, Part 2) was 1 and the “Number of individuals with verified or multiple increased serum K+ 5.6-6.0 mMol/L” value (hypertensive subjects [1]; 100 mg QD, Part 2) was 0. For the same compound, the “Number of individuals with verified or multiple increased serum K+ 6.1-6.5 mMol/L” value (hypertensive subjects [1]; 100 mg QD, Part 2) was 0, the “Number of individuals with verified or multiple increased serum K+ >6.5 mMol/L” value (hypertensive subjects [1]; 100 mg QD, Part 2) was 0 and the “Percent of individuals with verified or multiple increased serum K+ 5.2-5.5 mMol/L” value (hypertensive subjects [1]; 100 mg QD, Part 2) was “(4%)”. The “Increase in potassium levels relative to baseline” value (hypertensive subjects [1]; 100 mg QD, Part 2) was 0.208 mmol/L, the “Number of individuals with verified or multiple increased serum K+ 5.2-5.5 mMol/L” value (hypertensive subjects [1]; 100 mg QD, Pooled) was 6 and the “Number of individuals with verified or multiple increased serum K+ 5.6-6.0 mMol/L” value (hypertensive subjects [1]; 100 mg QD, Pooled) was 3. For the same compound, the “Number of individuals with verified or multiple increased serum K+ 6.1-6.5 mMol/L” value (hypertensive subjects [1]; 100 mg QD, Pooled) was 0, the “Number of individuals with verified or multiple increased serum K+ >6.5 mMol/L” value (hypertensive subjects [1]; 100 mg QD, Pooled) was 0 and the “Percent of individuals with verified or multiple increased serum K+ 5.2-5.5 mMol/L” value (hypertensive subjects [1]; 100 mg QD, Pooled) was “(10.3%)”. The “Percent of individuals with verified or multiple increased serum K+ 5.6-6.0 mMol/L” value (hypertensive subjects [1]; 100 mg QD, Pooled) was “(5.2%)”, the “Individuals with increased serum K+, Mild 5.6-6.0 mMol/L (number)” value (hypertensive subjects [1]; All Active (n = 163)) was 16 and the “Individuals with increased serum K+, Mild 5.6-6.0 mMol/L (percent)” value (hypertensive subjects [1]; All Active (n = 163)) was “(9.8%)”. For the same compound, the “Individuals with increased serum K+, Moderate 6.1-6.5 mMol/L” value (hypertensive subjects [1]; All Active (n = 163)) was 4 (2.5%), the “Individuals with increased serum K+, Severe >6.5 mMol/L” value (hypertensive subjects [1]; All Active (n = 163)) was 2* and the “Change in group mean serum potassium (K+), Mean” value (shortened to “Change … (K+), Mean”) (hypertensive subjects [1]; Part 1 (N 26)) was “+0.50 mMol/L”. The “Change … (K+), Mean” value (hypertensive subjects [1]; Part 1, N 26*) was “+0.50 mMol/L”, the “Change … (K+), Mean” value (hypertensive subjects [1]; Part 2 (N 31)) was “+0.23 mMol/L” and the “Change … (K+), Mean” value (hypertensive subjects [1]; Part 2, N 31) was “+0.23 mMol/L”. The “Subjects with transient elevated serum potassium greater than 6.0 mmol/L” value (hypertensive subjects [1]; Parts 1 and 2, listed as lorundrostat) was “seven”, the “Change … (K+), Mean” value (hypertensive subjects [1]; Pooled (N 57)) was “+0.35 mMol/L” and the “Change … (K+), Mean” value (hypertensive subjects [1]; Pooled, N 57) was “+0.35 mMol/L”. The “Serum potassium levels compared with placebo” value (hypertensive subjects [1]; active treatment cohorts, Parts 1 and 2) was “increased”, the “eGFR mean maximum decline relative to baseline” value (hypertensive subjects [2]; 100 mg QD, Week 2) was 10.91 mL/min/1.73 m^2 and the “Estimated Glomerular Filtration Rate, Mean (SD) Change from Baseline” value (hypertensive subjects [2]; Week 1, 12.5 mg BID) was −2.25 (8.42) mL/min/1.73 m^2. The “Estimated Glomerular Filtration Rate, Mean (SD) Observed” value (hypertensive subjects [2]; Week 1, 12.5 mg BID) was 79.45 (15.19) mL/min/1.73 m^2, the “Estimated Glomerular Filtration Rate, Mean (SD) Change from Baseline” value (hypertensive subjects [2]; Week 1, 12.5 mg QD) was −4.30 (7.14) mL/min/1.73 m^2 and the “Estimated Glomerular Filtration Rate, Mean (SD) Observed” value (hypertensive subjects [2]; Week 1, 12.5 mg QD) was 73.57 (20.33) mL/min/1.73 m^2. For the same compound, the “Estimated Glomerular Filtration Rate, Mean (SD) Change from Baseline” value (hypertensive subjects [2]; Week 1, 25 mg BID) was −6.85 (8.88) mL/min/1.73 m^2, the “Estimated Glomerular Filtration Rate, Mean (SD) Observed” value (hypertensive subjects [2]; Week 1, 25 mg BID) was 74.00 (13.13) mL/min/1.73 m^2 and the “Estimated Glomerular Filtration Rate, Mean (SD) Change from Baseline” value (hypertensive subjects [2]; Week 1, 50 mg QD) was −2.96 (8.52) mL/min/1.73 m^2. The “Estimated Glomerular Filtration Rate, Mean (SD) Observed” value (hypertensive subjects [2]; Week 1, 50 mg QD) was 74.21 (16.88) mL/min/1.73 m^2, the “Estimated Glomerular Filtration Rate, Mean (SD) Change from Baseline” value (hypertensive subjects [2]; Week 1, 100 mg QD) was −6.80 (10.03) mL/min/1.73 m^2 and the “Estimated Glomerular Filtration Rate, Mean (SD) Observed” value (hypertensive subjects [2]; Week 1, 100 mg QD) was 70.81 (17.66) mL/min/1.73 m^2. The “Estimated Glomerular Filtration Rate, Mean (SD) Change from Baseline” value (hypertensive subjects [2]; Week 2, 12.5 mg BID) was −3.69 (6.46) mL/min/1.73 m^2, the “Estimated Glomerular Filtration Rate, Mean (SD) Observed” value (hypertensive subjects [2]; Week 2, 12.5 mg BID) was 78.86 (18.56) mL/min/1.73 m^2 and the “Estimated Glomerular Filtration Rate, Mean (SD) Change from Baseline” value (hypertensive subjects [2]; Week 2, 12.5 mg QD) was −4.87 (5.03) mL/min/1.73 m^2. The “Estimated Glomerular Filtration Rate, Mean (SD) Observed” value (hypertensive subjects [2]; Week 2, 12.5 mg QD) was 73.00 (20.81) mL/min/1.73 m^2, the “Estimated Glomerular Filtration Rate, Mean (SD) Change from Baseline” value (hypertensive subjects [2]; Week 2, 25 mg BID) was −5.42 (10.01) mL/min/1.73 m^2 and the “Estimated Glomerular Filtration Rate, Mean (SD) Observed” value (hypertensive subjects [2]; Week 2, 25 mg BID) was 75.43 (15.32) mL/min/1.73 m^2. The “Estimated Glomerular Filtration Rate, Mean (SD) Change from Baseline” value (hypertensive subjects [2]; Week 2, 50 mg QD) was −4.32 (9.06) mL/min/1.73 m^2, the “Estimated Glomerular Filtration Rate, Mean (SD) Observed” value (hypertensive subjects [2]; Week 2, 50 mg QD) was 72.86 (16.55) mL/min/1.73 m^2 and the “Estimated Glomerular Filtration Rate, Mean (SD) Change from Baseline” value (hypertensive subjects [2]; Week 2, 100 mg QD) was −10.91 (8.57) mL/min/1.73 m^2. The “Estimated Glomerular Filtration Rate, Mean (SD) Observed” value (hypertensive subjects [2]; Week 2, 100 mg QD) was 65.56 (17.66) mL/min/1.73 m^2, the “Estimated Glomerular Filtration Rate, Mean (SD) Change from Baseline” value (hypertensive subjects [2]; Week 3, 12.5 mg BID) was −5.17 (8.54) mL/min/1.73 m^2 and the “Estimated Glomerular Filtration Rate, Mean (SD) Observed” value (hypertensive subjects [2]; Week 3, 12.5 mg BID) was 77.38 (16.68) mL/min/1.73 m^2. For the same compound, the “Estimated Glomerular Filtration Rate, Mean (SD) Change from Baseline” value (hypertensive subjects [2]; Week 3, 12.5 mg QD) was −2.05 (6.43) mL/min/1.73 m^2, the “Estimated Glomerular Filtration Rate, Mean (SD) Observed” value (hypertensive subjects [2]; Week 3, 12.5 mg QD) was 77.21 (20.38) mL/min/1.73 m^2 and the “Estimated Glomerular Filtration Rate, Mean (SD) Change from Baseline” value (hypertensive subjects [2]; Week 3, 25 mg BID) was −5.90 (8.63) mL/min/1.73 m^2. For the same compound, the “Estimated Glomerular Filtration Rate, Mean (SD) Observed” value (hypertensive subjects [2]; Week 3, 25 mg BID) was 75.07 (11.95) mL/min/1.73 m^2, the “Estimated Glomerular Filtration Rate, Mean (SD) Change from Baseline” value (hypertensive subjects [2]; Week 3, 50 mg QD) was −2.35 (8.51) mL/min/1.73 m^2 and the “Estimated Glomerular Filtration Rate, Mean (SD) Observed” value (hypertensive subjects [2]; Week 3, 50 mg QD) was 74.81 (15.62) mL/min/1.73 m^2. The “Estimated Glomerular Filtration Rate, Mean (SD) Change from Baseline” value (hypertensive subjects [2]; Week 3, 100 mg QD) was −9.24 (10.99) mL/min/1.73 m^2, the “Estimated Glomerular Filtration Rate, Mean (SD) Observed” value (hypertensive subjects [2]; Week 3, 100 mg QD) was 67.22 (19.24) mL/min/1.73 m^2 and the “Estimated Glomerular Filtration Rate, Mean (SD) Change from Baseline” value (hypertensive subjects [2]; Week 4, 12.5 mg BID) was −6.58 (9.17) mL/min/1.73 m^2. For the same compound, the “Estimated Glomerular Filtration Rate, Mean (SD) Observed” value (hypertensive subjects [2]; Week 4, 12.5 mg BID) was 76.30 (18.28) mL/min/1.73 m^2, the “Estimated Glomerular Filtration Rate, Mean (SD) Change from Baseline” value (hypertensive subjects [2]; Week 4, 12.5 mg QD) was −5.45 (6.37) mL/min/1.73 m^2 and the “Estimated Glomerular Filtration Rate, Mean (SD) Observed” value (hypertensive subjects [2]; Week 4, 12.5 mg QD) was 73.40 (19.29) mL/min/1.73 m^2. For the same compound, the “Estimated Glomerular Filtration Rate, Mean (SD) Change from Baseline” value (hypertensive subjects [2]; Week 4, 25 mg BID) was −6.69 (8.97) mL/min/1.73 m^2, the “Estimated Glomerular Filtration Rate, Mean (SD) Observed” value (hypertensive subjects [2]; Week 4, 25 mg BID) was 73.48 (15.26) mL/min/1.73 m^2 and the “Estimated Glomerular Filtration Rate, Mean (SD) Change from Baseline” value (hypertensive subjects [2]; Week 4, 50 mg QD) was −3.61 (9.24) mL/min/1.73 m^2. The “Estimated Glomerular Filtration Rate, Mean (SD) Observed” value (hypertensive subjects [2]; Week 4, 50 mg QD) was 73.63 (16.75) mL/min/1.73 m^2, the “Estimated Glomerular Filtration Rate, Mean (SD) Change from Baseline” value (hypertensive subjects [2]; Week 4, 100 mg QD) was −9.46 (12.53) mL/min/1.73 m^2 and the “Estimated Glomerular Filtration Rate, Mean (SD) Observed” value (hypertensive subjects [2]; Week 4, 100 mg QD) was 67.23 (19.70) mL/min/1.73 m^2. For the same compound, the “Estimated Glomerular Filtration Rate, Mean (SD) Change from Baseline” value (hypertensive subjects [2]; Week 5, 12.5 mg BID) was −7.58 (8.00) mL/min/1.73 m^2.

Reference: patent US20260053811A1, “METHODS OF TREATING HYPERTENSION IN OBESE SUBJECTS” (Mineralys Therapeutics, Inc., priority 2022, published 2026)
